In this assay the test system is Plasmodium berghei. Kind of assay: Luciferase/luciferin-expressing antifolate-resistant parasites were used to infect a culture of HepG2 cells that were pre-incubated with compounds. Infected hepatocytes emit light due to the luciferase reaction. Assay results are presented as the percent inhibition of light emission compared to control. […]. In kind it is functional. The settings on record: sporozoite; for IC90: read-out: LUCIFERASE INFECTION ASSAY - IC90.

As a reminder, the IC50 is the concentration at which inhibition is half-maximal. By IC90 is commonly meant the point of the concentration-response curve where the effect stands at 90%.

Molecules are shown by their SMILES.

Take `CC(C)Cc1ccc(C(=O)CC(Sc2ccccc2N)c2cccc([N+](=O)[O-])c2)cc1` (stereo unspecified): the IC90 is 2.86 µM. Besides, the IC50 (FFLUC_HILL_SLOPE 39.9, FFLUC_R_SQUARED 0.525, PBLUC_HILL_SLOPE 1.28, PBLUC_R_SQUARED 0.727, read-out: LUCIFERASE INFECTION ASSAY - IC50) is 0.511 µM.
For the compound `Cc1ccc(N2C(=N)C(c3nc4ccccc4s3)C(c3ccccc3)C2=O)cc1` (stereo unspecified), the IC90 was greater than 10 µM. Besides, the IC50 (FFLUC_HILL_SLOPE 38.3, FFLUC_R_SQUARED 0.217, HEPG2TOX_HILL_SLOPE 0.75, HEPG2TOX_R_SQUARED 0.479, read-out: LUCIFERASE INFECTION ASSAY - IC50) was greater than 10 µM.
`O=C(Oc1ccc(Cl)cc1Sc1cc(Cl)ccc1OC(=O)c1cccs1)c1cccs1`: the IC90 is greater than 6.5 µM. The IC50 (FFLUC_HILL_SLOPE 35.2, FFLUC_R_SQUARED 0.259, read-out: LUCIFERASE INFECTION ASSAY - IC50) is greater than 6.5 µM.
For the compound `CSc1sc(C(=O)OC2CCCCC2)c2c1C(=O)CC(C)(C)C2`, the IC90 was greater than 9.36 µM. For the same compound, the half-maximal inhibitory concentration (IC50) (FFLUC_HILL_SLOPE 35.3, FFLUC_R_SQUARED 0.0335, read-out: LUCIFERASE INFECTION ASSAY - IC50) is greater than 9.36 µM.
With `CC1CCC(C(C)C)C(N(Cc2ccccc2)C(=O)c2cccc3ccccc23)C1` (stereo unspecified), the IC90 was greater than 8.26 µM. Moreover, the IC50 (FFLUC_HILL_SLOPE 35.1, FFLUC_R_SQUARED 0.0345, HEPG2TOX_HILL_SLOPE 5.62, HEPG2TOX_R_SQUARED 0.422, PBLUC_HILL_SLOPE 0.939, PBLUC_R_SQUARED 0.258, read-out: LUCIFERASE INFECTION ASSAY - IC50) was 6.39 µM.
As for `CCOC(=O)c1c(C2CC2)csc1NC(=O)COC(=O)c1cc(C)n(-c2cc(Cl)ccc2OC)c1C`, the IC90 is greater than 10 µM. The IC50 (FFLUC_HILL_SLOPE 35.2, FFLUC_R_SQUARED 0.269, read-out: LUCIFERASE INFECTION ASSAY - IC50) is greater than 10 µM.
For `CCOC(=O)c1ccc(N2CCCCC2)c(NC(=O)c2sc3ccccc3c2Cl)c1`, the IC90 was greater than 7.45 µM. Further, the IC50 (FFLUC_HILL_SLOPE 35, FFLUC_R_SQUARED 0.23, read-out: LUCIFERASE INFECTION ASSAY - IC50) was greater than 7.45 µM.
For the compound `Cn1c(CSc2cccs2)n[nH]c1=S`, the IC90 was greater than 13.6 µM. For the same compound, where the note is “FFLUC_HILL_SLOPE 40, FFLUC_R_SQUARED 0.0342, read-out: LUCIFERASE INFECTION ASSAY - IC50”, the IC50 is greater than 13.6 µM.
Turning to `COc1cc(/C=C2\COc3c(Cl)cc(Cl)cc3C2=O)cc(OC)c1O`, the IC90 amounted to 7.17 µM. In addition, where the note is “FFLUC_HILL_SLOPE 30.3, FFLUC_R_SQUARED 0.145, HEPG2TOX_HILL_SLOPE 11.5, HEPG2TOX_R_SQUARED 0.166, PBLUC_HILL_SLOPE 35.9, PBLUC_R_SQUARED 0.493, read-out: LUCIFERASE INFECTION ASSAY - IC50”, the IC50 was 6.74 µM.
With `CCOc1ccc(-n2c(SCC(=O)Nc3cc(C(C)(C)C)nn3-c3ccccc3)nc3ccccc32)cc1`, the concentration for an effect of 90% (IC90) is greater than 10 µM. Further, the IC50 (FFLUC_HILL_SLOPE 35.3, FFLUC_R_SQUARED 0.234, PBLUC_HILL_SLOPE 11.6, PBLUC_R_SQUARED 0.616, read-out: LUCIFERASE INFECTION ASSAY - IC50) stood at 8.73 µM.
Regarding `CC1CC(=O)C2C(=Nc3ccccc3SC2c2ccc(F)cc2)C1` (stereo unspecified), the IC90 is greater than 9.72 µM. In addition, the concentration for half-maximal inhibition (IC50) (FFLUC_HILL_SLOPE 40.6, FFLUC_R_SQUARED 0.352, PBLUC_HILL_SLOPE 4.94, PBLUC_R_SQUARED 0.608, read-out: LUCIFERASE INFECTION ASSAY - IC50) is 7.03 µM.
`Cc1cc([N+](=O)[O-])cc(S(=O)(=O)N(C)Cc2ccc(C(=O)NC3CC3)cc2)c1C`: the IC90 came out at 6.84 µM. Also, the 50% inhibitory concentration (IC50) (FFLUC_HILL_SLOPE 30.1, FFLUC_R_SQUARED 0.449, PBLUC_HILL_SLOPE 4.67, PBLUC_R_SQUARED 0.152, read-out: LUCIFERASE INFECTION ASSAY - IC50) amounted to 4.27 µM.
As to `O=C(NC1CCSc2ccc(Cl)cc21)c1cc(Br)c[nH]1` (stereo unspecified), the IC90 was greater than 10 µM. In addition, the IC50 (FFLUC_HILL_SLOPE 30.3, FFLUC_R_SQUARED 0.512, PBLUC_HILL_SLOPE 1.67, PBLUC_R_SQUARED 0.28, read-out: LUCIFERASE INFECTION ASSAY - IC50) amounted to 5.71 µM.
In the case of `OCCNc1ncnc2c1c(-c1ccccc1)cn2-c1ccc(Cl)cc1`, the IC90 was greater than 10 µM. For the same compound, the IC50 (FFLUC_HILL_SLOPE 35.7, FFLUC_R_SQUARED 0.282, read-out: LUCIFERASE INFECTION ASSAY - IC50) was greater than 10 µM.
As for `CCOC(=O)c1c(S(=O)(=O)Nc2cccc(C(F)(F)F)c2)c(-c2ccccc2)n(-c2ccccc2)c1C`, the IC90 is greater than 6.24 µM. Moreover, the IC50 (FFLUC_HILL_SLOPE 40.4, FFLUC_R_SQUARED 0.424, read-out: LUCIFERASE INFECTION ASSAY - IC50) was greater than 6.24 µM.
As for `CC(C)Cn1c(N)c(C(=O)COC(=O)c2cc(-c3cccs3)nc3ccccc23)c(=O)n(C)c1=O`, the IC90 came out at 3.23 µM. In addition, the IC50 (FFLUC_HILL_SLOPE 33.5, FFLUC_R_SQUARED 0.479, PBLUC_HILL_SLOPE 4.72, PBLUC_R_SQUARED 0.427, read-out: LUCIFERASE INFECTION ASSAY - IC50) was 2.03 µM.
Regarding `O=C(Nc1ccc(-n2nncc2-c2ccccc2)cc1)c1ccc(S(=O)(=O)N2CCCCC2)cc1`, the IC90 amounted to 9.56 µM. Under “FFLUC_HILL_SLOPE 38.4, FFLUC_R_SQUARED 0.244, HEPG2TOX_HILL_SLOPE 8, HEPG2TOX_R_SQUARED 0.798, PBLUC_HILL_SLOPE 2.57, PBLUC_R_SQUARED 0.825, read-out: LUCIFERASE INFECTION ASSAY - IC50”, the IC50 was 4.06 µM.
For the compound `CS/C(Nc1cccc(C(F)(F)F)c1)=C(/C#N)S(=O)(=O)c1ccc(Cl)cc1`, the IC90 is greater than 7.62 µM. Besides, for the setting “FFLUC_HILL_SLOPE 30.1, FFLUC_R_SQUARED 0.771, HEPG2TOX_HILL_SLOPE 1.92, HEPG2TOX_R_SQUARED 0.988, PBLUC_HILL_SLOPE 2.74, PBLUC_R_SQUARED 0.0319, read-out: LUCIFERASE INFECTION ASSAY - IC50”, the IC50 worked out at 4.34 µM.
`O=C(Nc1ccc(OC(F)(F)F)cc1)Sc1ccc(Cl)s1`: the IC90 is greater than 9.33 µM. Moreover, the IC50 (FFLUC_HILL_SLOPE 30.4, FFLUC_R_SQUARED 0.438, HEPG2TOX_HILL_SLOPE 8.9, HEPG2TOX_R_SQUARED 0.733, PBLUC_HILL_SLOPE 2, PBLUC_R_SQUARED 0.693, read-out: LUCIFERASE INFECTION ASSAY - IC50) was determined as 3.61 µM.
For the compound `Cc1onc(-c2ccccc2)c1-c1csc(Nc2cc(C(F)(F)F)cc(C(F)(F)F)c2)n1`, the IC90 is 3.88 µM. The IC50 (FFLUC_HILL_SLOPE 38.4, FFLUC_R_SQUARED 0.44, HEPG2TOX_HILL_SLOPE 9.25, HEPG2TOX_R_SQUARED 0.968, PBLUC_HILL_SLOPE 81.8, PBLUC_R_SQUARED 0.627, read-out: LUCIFERASE INFECTION ASSAY - IC50) amounted to 3.78 µM.
For `CC(C)NC(=O)c1c(NC(=O)c2cccc(C(F)(F)F)c2)nc2ccccn12`, the IC90 stood at 0.971 µM. Also, the IC50 (FFLUC_HILL_SLOPE 39.4, FFLUC_R_SQUARED 0.293, HEPG2TOX_HILL_SLOPE 0.926, HEPG2TOX_R_SQUARED 0.794, PBLUC_HILL_SLOPE 4.31, PBLUC_R_SQUARED 0.785, read-out: LUCIFERASE INFECTION ASSAY - IC50) was 0.583 µM.
With `Cc1cc(-c2cccc3[nH]c(C(F)(F)F)nc23)nn1C(=O)c1ccc([N+](=O)[O-])cc1`, the 90% effect concentration (IC90) was greater than 10 µM. Also, the IC50 (FFLUC_HILL_SLOPE 35.5, FFLUC_R_SQUARED 0.403, HEPG2TOX_HILL_SLOPE 0.192, HEPG2TOX_R_SQUARED 0.301, PBLUC_HILL_SLOPE 13.6, PBLUC_R_SQUARED 0.349, read-out: LUCIFERASE INFECTION ASSAY - IC50) is 9.27 µM.
In the case of `C=CCn1c(Sc2nc(C)nc3sc4c(c23)CCC4)nnc1-c1ccco1`, the 90% effect concentration (IC90) was greater than 10 µM. In addition, the IC50 (FFLUC_HILL_SLOPE 38.3, FFLUC_R_SQUARED 0.259, read-out: LUCIFERASE INFECTION ASSAY - IC50) was greater than 10 µM.
For `CCCCNC(=O)c1c(NC(=O)COc2ccccc2)nc2ccc(C)cn12`, the concentration for an effect of 90% (IC90) was 8.47 µM. In addition, the IC50 (FFLUC_HILL_SLOPE 32.7, FFLUC_R_SQUARED 0.34, HEPG2TOX_HILL_SLOPE 7.48, HEPG2TOX_R_SQUARED 0.362, PBLUC_HILL_SLOPE 14.2, PBLUC_R_SQUARED 0.182, read-out: LUCIFERASE INFECTION ASSAY - IC50) came out at 7.25 µM.
For `CCCc1ccc(-c2nc(-c3ccccc3)no2)cc1`, the IC90 came out at 0.0999 µM. Moreover, under “FFLUC_HILL_SLOPE 35.1, FFLUC_R_SQUARED 0.438, PBLUC_HILL_SLOPE 1.27, PBLUC_R_SQUARED 0.957, read-out: LUCIFERASE INFECTION ASSAY - IC50”, the concentration for half-maximal inhibition (IC50) is 0.0177 µM.
Turning to `CCCOc1ccc(C=C(c2nc3ccccc3s2)c2nc3ccccc3s2)c(O)c1`, the IC90 was greater than 10 µM. The IC50 (FFLUC_HILL_SLOPE 30.4, FFLUC_R_SQUARED 0.313, read-out: LUCIFERASE INFECTION ASSAY - IC50) is greater than 10 µM.
`CC(C)N(c1ccccc1)c1ccc(NC(=O)COC(=O)c2ccc(Cl)c(S(=O)(=O)N(Cc3ccccc3)c3ccc(Cl)cc3)c2)cc1`: the concentration for an effect of 90% (IC90) is greater than 10 µM. The IC50 (FFLUC_HILL_SLOPE 30.3, FFLUC_R_SQUARED 0.617, PBLUC_HILL_SLOPE 4.64, PBLUC_R_SQUARED 0.334, read-out: LUCIFERASE INFECTION ASSAY - IC50) worked out at 9.19 µM.
As to `O=S(=O)(Nc1cc(C(F)(F)F)cc(C(F)(F)F)c1)c1ccccc1Oc1ccc(Cl)cc1Cl`, the IC90 was greater than 6.22 µM. In addition, the IC50 (FFLUC_HILL_SLOPE 40.5, FFLUC_R_SQUARED 0.634, read-out: LUCIFERASE INFECTION ASSAY - IC50) was greater than 6.22 µM.

(Values after ChEMBL document CHEMBL4483862, “Open-source discovery of chemical leads for next-generation chemoprotective antimalarials” (2018).)
